In ChEMBL document CHEMBL1121433, “New cyclopenta[a]naphthalene derivatives. Synthesis of 2-(carbamylmethyl)-8-hydroxy-3H-cyclopental[a]naphthalene as a possible deoxyribonucleic acid binding agent” (1980):

How the values were obtained:
[1] = system: L1210; test: Tested for inhibition of compound against growth of L1210 cells at 3.2E-5 M; type: functional, Mus musculus
[2] = system: CCRF-CEM; test: Tested for inhibition of compound against growth of CCRF-CEM cells at 1.0E-4 M; type: functional, Homo sapiens

NC(=O)CC1=Cc2c(ccc3ccc(O)cc23)C1
Inhibition [1]: 25%
Inhibition [2]: 25%
